EP0923292B1, “IMPROVED METHOD FOR SYSTEMIC ADMINISTRATION OF 2,4-DIENOIC ACID-TYPE INSECTICIDES TO TERRESTRIAL MAMMALS” (priority 1996, dated 1998)
Like-named read-outs stand apart in the source and are kept apart here.

Legend:
adult cat fleas = assay: Flea ovicidal activity in vitro: artificial feeding system with treated beef blood (Examples 4 and 6); design: species or system C. felis; settings: Ctenocephalides felis, read-out: Percent Inhibition of Flea Egg Hatching; for inhibition at 0.5 ppm: 0.5 ppm in beef blood; for inhibition at 5 ppm: 5.0 ppm in beef blood; for inhibition at 0.05 ppm: 0.05 ppm in beef blood
Description: For the in vitro tests, an artificial feeding system with cages for adult cat fleas C. felis was used as described by Wade, S.E., et al., J. Med. Ent. 25(3): 186-190 (May 1988). Inside each cage were placed 100 one-week-old, unfed adult C. fells. Each cage included a container for treated blood separated from the fleas by a PARAFILM® membrane, and a compartment containing thin strips of paper to support loosely arranged clean dog hair and to provide a foothold for the fleas as they fed on the blood through the membrane.
The artificial feeding system and cages for adult cat fleas described in Example 3 were used. Beef blood was used for the feeding system, and was prepared by adding 35 mL of a 20% sodium citrate solution per liter of blood to prevent clotting. A stock solution of lufenuron was prepared by adding 50.1 mg of technical lufenuron to 4.951 g of dimethyl sulfoxide (DMSO) to yield a 1.0% solution. A 1,000 ppm solution was then prepared by diluting 1.0 mL of the 1.0% solution in 9.0 mL of DMSO, and a 100 ppm solution was prepared by diluting 1.0 mL of the 1,000 ppm solution in 9.0 mL of DMSO. Dimethyl sulfoxide itself was used as a control. To treat the blood, the various solutions (0.05 mL) were added to the citrated beef blood (100.0 mL) to yield beef blood solutions containing 5.0 ppm, 0.5 ppm, 0.05 ppm, and 0.00 (zero) ppm lufenuron. Each solution was mixed thoroughly, and 10 mL at each concentration were placed in each of five feeders in the artificial feeding system to serve as replicates. Each day fresh blood solutions identical to the originals were placed in the feeders.
Flea eggs were collected from each replicate on days 3, 5 and 7. One hundred (100) healthy appearing […] were counted under a dissecting microscope from each replicate, divided into two subsamples per replicate, and placed in 60 mm x 15 mm plastic petri dishes. The samples were incubated at 78°F and 85% relative humidity for three days, then scored for larval hatch using by visual observation through the dissecting microscope. The data from all replicates at each concentration were combined to yield the mean percent egg hatch, and the percent inhibition of egg hatch was calculated relative to the control.
Retuming to (S)-methoprene, this example presents in vitro flea ovicidal activity using beef blood, for comparison with Example 4. Procedures using beef blood were the same as those indicated in the previous examples.

C. Felis fleas = assay: Lufenuron systemic flea ovicidal activity upon oral administration to host dogs (Example 5); type: in vivo, C. felis (host: dogs); settings: oral single doses of 10 mg/kg at Day 0 and Day 28
Experimental: Flea eggs were collected on Days -7, 0, 1, 2, 4, 7, and weekly thereafter through Day 63. Prior to egg collection, the cages in which the dogs were housed and the collection trays were rinsed with isopropyl alcohol, and the water was turned off, feed bowls and resting pads were removed from each cage. Trays covered with a screen made of […] hardware cloth were placed under the cages, and heavy white butcher paper was placed under the hardware cloth. After an interval of 14-16 hours, the paper was swept and the debris and flea eggs thus collected were transferred to a metal pan. The debris was separated from the eggs by sieving, and the eggs were placed in half-pint plastic cartons, then transferred to 10 cm x 10 cm glass plates. Using a dissecting microscope and a fine tipped artist brush, 100 flea eggs were counted from the sweepings of each dog and separated into four replicates of 25 eggs each. The eggs were placed in a 15 mm x 60 mm disposable plastic petri dish and incubated at 79-80°F and 80% relative humidity. Seventy two hours after collection, larvae emergence was determined. Both dead and live larvae were counted to determine the ovicidal effect of the treatment.
Six random bred and purebred, clinically healthy dogs, three male and three female, ranging in weight from 5.5 kg to 17.2 kg each and in age from 5 months to 42 months, and having hair coats ranging from medium to coarse and from 1.0 to 5.0 cm in length, were used. The dogs were divided into two treatment groups of three dogs each. The dogs were all maintained on regular feeding schedules of dog food and water, and each dog in one of the two groups was administered an appropriate number of lufenuron-containing gelatin capsules to achieve a dosage of 10 mg/kg of the body weight of the dog. This dosage is identified in the supplier's technical literature as the minimum effective dosage for C. felis in dogs, and the dosage that will result in a blood concentration level of 0.05 ppm remaining for at least 14 days after the administration of a single dose. Administration was performed at Day 0 and again at Day 28.
On Days -8 (eight days before the lufenuron administration), -4, 3, 10, 17, 24, 31, 38, 45, 52, and 59, approximately 100 unfed adult C. Felis fleas were applied to each dog by standard procedures. Flea eggs were collected and larval emergence (egg hatching) was determined by the procedures of Example 2 on Days -4, 0, 1, 2, 4, 7, 14, 21, 28, 35, 42, 49, and 56.

C. felis = settings: supplier's technical literature; cited from earlier work
[1] = remaining for at least 14 days after the administration of a single dose of 10 mg/kg; supplier's technical literature; cited from earlier work

## O=C(NC(=O)c1c(F)cccc1F)Nc1cc(Cl)c(OC(F)(F)C(F)C(F)(F)F)cc1Cl (stereo not drawn) [Lufenuron]
Adult cat fleas; 72 h, day 3, low number of eggs produced in both controls and treated groups
  inhibition at 0.5 ppm: 80.6%
Adult cat fleas; 72 h, day 3
  inhibition at 5 ppm: 100%
Adult cat fleas; 120 h, day 5
  inhibition at 0.05 ppm: 10.8%
  inhibition at 0.5 ppm: 56.5%
  inhibition at 5 ppm: 99.8%
Adult cat fleas; 168 h, day 7
  inhibition at 0.05 ppm: 6.9%
  inhibition at 0.5 ppm: 63.2%
  inhibition at 5 ppm: 100%
C. Felis fleas; Day 1
  Percent Inhibition of Flea Egg Hatching: 39.9%
C. Felis fleas; Day 2
  Percent Inhibition of Flea Egg Hatching: 70.6%
C. Felis fleas; Day 4
  Percent Inhibition of Flea Egg Hatching: 54.5%
C. Felis fleas; Day 7
  Percent Inhibition of Flea Egg Hatching: 54.1%
C. Felis fleas; Day 14
  Percent Inhibition of Flea Egg Hatching: 52.1%
C. Felis fleas; Day 21
  Percent Inhibition of Flea Egg Hatching: 10.7%
C. Felis fleas; Day 28
  Percent Inhibition of Flea Egg Hatching: 0%
C. Felis fleas; Day 35
  Percent Inhibition of Flea Egg Hatching: 48.6%
C. Felis fleas; Day 42
  Percent Inhibition of Flea Egg Hatching: 0%
C. Felis fleas; Day 49
  Percent Inhibition of Flea Egg Hatching: 72.7%
C. Felis fleas; Day 56
  Percent Inhibition of Flea Egg Hatching: 20.5%
C. felis
  minimum effective dosage for C. felis in dogs: 10 mg/kg
[1]
  blood concentration level: 0.05 ppm
